Experimental data taken from patent US10144706B2 (BRISTOL-MYERS SQUIBB COMPANY, priority 2016, dated 2018).
Like-named read-outs stand apart in the source and are kept apart here.

Biological target: T1, PD-1/PD-L1 interaction (PD-1-Ig / PD-L1-His) (Homo sapiens, UniProt Q9NZQ7)
T1 construct: hPDL1(18-239)-TVMV-His; TVMV protease site linker (C); made in house; host or cells: HEK293T
Experiment: PD-1/PD-L1 Homogenous Time-Resolved Fluorescence (HTRF) binding assay
Settings: PD-L1-His 10 nM, PD-1-Ig 20 nM, read-out: Range or IC50
Source text: The ability of the compounds of formula (I) to bind to PD-L1 was investigated using a PD-1/PD-L1 Homogenous Time-Resolved Fluorescence (HTRF) binding assay.
Homogenous Time-Resolved Fluorescence (HTRF) Binding Assay.
The interaction of PD-1 and PD-L1 can be assessed using soluble, purified preparations of the extracellular domains of the two proteins. The PD-1 and PD-L1 protein extracellular domains were expressed as fusion proteins with detection tags, for PD-1, the tag was the Fc portion of Immunoglobulin (PD-1-Ig) and for PD-L1 it was the 6 histidine motif (PD-L1-His). All binding studies were performed in an HTRF assay buffer consisting of dPBS supplemented with 0.1% […] bovine serum albumin and 0.05% (v/v) Tween-20. For the h/PD-L1-His binding assay, inhibitors were pre-incubated with PD-L1-His (10 nM final) for 15 m in 4 μl of assay buffer, followed by addition of PD-1-Ig (20 nM final) in 1 μl of assay buffer and further incubation for 15 m. HTRF detection was achieved using europium crypate-labeled anti-Ig (1 nM final) and allophycocyanin (APC) labeled anti-His (20 nM final). Antibodies were diluted in HTRF detection buffer and 5 μl was dispensed on top of the binding reaction. […] Additional binding assays were established between the human proteins PD-1-Ig/PD-L2-His (20 & 5 nM, respectively) and CD80-His/PD-L1-Ig (100 & 10 nM, respectively). […]

T1 sequence (Q9NZQ7 with tags, fused parts or gaps): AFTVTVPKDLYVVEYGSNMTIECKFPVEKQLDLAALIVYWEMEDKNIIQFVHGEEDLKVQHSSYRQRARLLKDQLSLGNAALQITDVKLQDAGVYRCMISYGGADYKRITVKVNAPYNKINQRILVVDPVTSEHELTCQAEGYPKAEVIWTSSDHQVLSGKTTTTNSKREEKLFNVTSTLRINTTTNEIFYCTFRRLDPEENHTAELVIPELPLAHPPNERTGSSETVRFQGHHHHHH

Structure (SMILES)	IC50 (IC50 range class) [nM]	IC50 (numeric IC50) [nM]
COC(=O)C1CCN(Cc2cc(Cl)c(OCc3cccc(-c4cccc(COc5cc(OCc6cncc(C#N)c6)c(CN6CCC(C(=O)OC)C(O)C6)cc5Cl)c4C)c3C)cc2OCc2cncc(C#N)c2)CC1O (stereo not shown) [Example 40310]	20.1 to 90	
CCCN(CCO)CCCOc1cccc(-c2cccc(OCCCN3CC[C@@H](O)C3)c2C)c1C [Example 2053, (R)-1-(3-((3′-(3-((2-hydroxyethyl)(propyl)amino)propoxy)-2,2′-dimethyl-[1,1′-biphenyl]-3-yl)oxy)propyl)pyrrolidin-3-ol]	90.1 to 1000	
CNCCOCCN(C)CCCOc1cccc(-c2cccc(OCCCN3CC[C@@H](O)C3)c2C)c1C [Example 2096, (R)-1-(3-((2,2′-dimethyl-3′-(3-(methyl(2-(2-(methylamino)ethoxy)ethyl)amino)propoxy)-[1,1′-biphenyl]-3-yl)oxy)propyl)pyrrolidin-3-ol]	20.1 to 90	
Cc1c(OCCCNCc2ccncc2)cccc1-c1cccc(OCCCN2CC[C@@H](O)C2)c1C [Example 2006, (R)-1-(3-((2,2′-dimethyl-3′-(3-((pyridin-4-ylmethyl)amino)propoxy)-[1,1′-biphenyl]-3-yl)oxy)propyl)pyrrolidin-3-ol]	90.1 to 1000	
COc1cc(OCc2cccc(-c3cccc(COc4cc(OC)c(CNCc5cncs5)cc4Cl)c3C)c2C)c(Cl)cc1CNCc1cncs1 [Example 5034, 1,1′-((((2,2′-dimethyl-[1,1′-biphenyl]-3,3′-diyl)bis(methylene))bis(oxy))bis(5-chloro-2-methoxy-4,1-phenylene))bis(N-(thiazol-5-ylmethyl)methanamine)]	20.1 to 90	
Cc1c(COc2cc(OCc3cncc(C#N)c3)c(Cl)cc2Cl)cccc1-c1cccc(COc2cc(OCc3cncc(C#N)c3)c(CN[C@H](C(=O)O)[C@@H](C)O)cc2Cl)c1C [Example 70010]	90.1 to 1000	
Cc1c(COc2cc(OCc3ccc(-n4cccn4)nc3)c(CN3CCCC[C@H]3C(=O)O)cc2Cl)cccc1-c1cccc(COc2cc(OCc3ccc(-n4cccn4)nc3)c(CN3CCCC[C@H]3C(=O)O)cc2Cl)c1C [Example 5021, (2S,2′S)-1,1′-(((((2,2′-dimethyl-[1,1′-biphenyl]-3,3′-diyl)bis(methylene))bis(oxy))bis(2-((6-(1H-pyrazol-1-yl)pyridin-3-yl)methoxy)-5-chloro-4,1-phenylene))bis(methylene))bis(piperidine-2-carboxylic acid)]	0.04 to 20	
Cc1c(OCCCN2CCC(CO)CC2)cccc1-c1cccc(OCCCN2CC[C@@H](O)C2)c1C [Example 2106, (R)-1-(3-((3′-(3-(4-(hydroxymethyl)piperidin-1-yl)propoxy)-2,2′-dimethyl-[1,1′-biphenyl]-3-yl)oxy)propyl)pyrrolidin-3-ol]	20.1 to 90	
Cc1c(COc2cc(OCc3cncc(C#N)c3)c(CO)cc2Cl)cccc1-c1cccc(COc2cc(OCc3cncc(C#N)c3)c(CN[C@@H](C(=O)O)[C@H](C)O)cc2Cl)c1C [Example 50250]	0.04 to 20	
Cc1c(COc2cc(OCc3cncc(C#N)c3)c(CNC[C@H](O)CC(=O)O)cc2Cl)cccc1-c1cccc(COc2cc(OCc3cncc(C#N)c3)c(CNC[C@H](O)CC(=O)O)cc2Cl)c1C [Example 40110]	0.04 to 20	
Cc1c(COc2cc(OCc3cncc(C#N)c3)c(CO)cc2Cl)cccc1-c1cccc(COc2cc(OCc3cncc(C#N)c3)c(CN[C@@H](C(=O)O)[C@H](C)O)cc2Cl)c1C [Example 50180]	0.04 to 20	
Cc1c(OCCCNC(CO)c2ccncc2)cccc1-c1cccc(OCCCN2CC[C@@H](O)C2)c1C (stereo partly drawn) [Example 2047, (3R)-1-(3-((3′-(3-((2-hydroxy-1-(pyridin-4-yl)ethyl)amino)propoxy)-2,2′-dimethyl-[1,1′-biphenyl]-3-yl)oxy)propyl)pyrrolidin-3-ol]	90.1 to 1000	

More lines, now with the values ahead:

IC50 (IC50 range class) [nM]	IC50 (numeric IC50) [nM]	Structure (SMILES)
0.04 to 20		Cc1c(COc2cc(OCc3cncc(C#N)c3)c(CN[C@](C)(CO)C(=O)O)cc2Cl)cccc1-c1cccc(COc2cc(OCc3cncc(C#N)c3)c(CN[C@](C)(CO)C(=O)O)cc2Cl)c1C [Example 41210]
0.04 to 20		CC(=O)c1cc(Cl)c(OCc2cccc(-c3cccc(COc4cc(OCc5cncc(C#N)c5)c(CN[C@@](C)(CO)C(=O)O)cc4Cl)c3C)c2C)cc1OCc1cncc(C#N)c1 [Example 60070]
20.1 to 90		Cc1c(OCCCN(C)C2CC(O)C2)cccc1-c1cccc(OCCCN(C)C2CC(O)C2)c1C (stereo not shown) [Example 2090, 3,3′-((((2,2′-dimethyl-[1,1′-biphenyl]-3,3′-diyl)bis(oxy))bis(propane-3,1-diyl))bis(methylazanediyl))bis(cyclobutan-1-ol)]
0.04 to 20		Cc1c(COc2cc(OCc3cncc(C#N)c3)c(CN3CCCC[C@H]3C(=O)O)cc2Cl)cccc1-c1cccc(COc2cc(OCc3cncc(C#N)c3)c(CN3CCCC[C@H]3C(=O)O)cc2Cl)c1C [Example 2119, (2S,2′S)-1,1′-(((((2,2′-dimethyl-[1,1′-biphenyl]-3,3′-diyl)bis(methylene))bis(oxy))bis(5-chloro-2-((5-cyanopyridin-3-yl)methoxy)-4,1-phenylene))bis(methylene))bis(piperidine-2-carboxylic acid)]
0.04 to 20		Cc1c(COc2cc(OCc3cncc(C#N)c3)c(CO)cc2Cl)cccc1-c1cccc(COc2cc(OCc3cncc(C#N)c3)c(CN[C@H](CO)CC(=O)O)cc2Cl)c1C [Example 50330]
90.1 to 1000		Cc1c(OCCCNC[C@H](O)C(=O)O)cccc1-c1cccc(OCCCN2CC[C@@H](O)C2)c1C [Example 2045, (S)-2-hydroxy-3-((3-((3′-(3-((R)-3-hydroxypyrrolidin-1-yl)propoxy)-2,2′-dimethyl-[1,1′-biphenyl]-3-yl)oxy)propyl)amino)propanoic acid]
0.04 to 20		Cc1c(COc2cc(OCc3cncc(C#N)c3)c(CN3C[C@@H](C)C[C@H]3C(=O)O)cc2Cl)cccc1-c1cccc(COc2cc(OCc3cncc(C#N)c3)c(CN3C[C@@H](C)C[C@H]3C(=O)O)cc2Cl)c1C [Example 40430]
20.1 to 90		Cc1c(OCCCN2CC[C@@H](O)C2)cccc1-c1cccc(OCCCN2CCC[C@H](O)C2)c1C [Example 2115, (S)-1-(3-((3′-(3-((R)-3-hydroxypyrrolidin-1-yl)propoxy)-2,2′-dimethyl-[1,1′-biphenyl]-3-yl)oxy)propyl)piperidin-3-ol]
0.04 to 20		Cc1c(OCCCN(C)CCCO)cccc1-c1cccc(OCCCN(C)CCCO)c1C [Example 2030, 3,3′-((((2,2′-dimethyl-[1,1′-biphenyl]-3,3′-diyl)bis(oxy))bis(propane-3,1-diyl))bis(methylazanediyl))bis(propan-1-ol)]
0.04 to 20		Cc1c(COc2cc(OCc3cncc(C#N)c3)c(CN[C@@H](CC#N)C(=O)O)cc2Cl)cccc1-c1cccc(COc2cc(OCc3cncc(C#N)c3)c(CN[C@@H](CC#N)C(=O)O)cc2Cl)c1C [Example 40470]
1000 to 10000		COC(=O)[C@@H](NCc1cc(Cl)c(OCc2cccc(-c3cccc(COc4cc(OCc5cncc(C#N)c5)c(CN[C@H](C(=O)OC)[C@H](C)O)cc4Cl)c3C)c2C)cc1OCc1cncc(C#N)c1)[C@H](C)O [Example 40900]
	1250	Cc1c(OCCCN(Cc2cncc(C#N)c2)C[C@H](O)CO)cccc1-c1cccc(OCCCN(Cc2cncc(C#N)c2)C[C@H](O)CO)c1C [Example 2099, 5,5′-(((((2,2′-dimethyl-[1,1′-biphenyl]-3,3′-diyl)bis(oxy))bis(propane-3,1-diyl))bis(((S)-2,3-dihydroxypropyl)azanediyl))bis(methylene))dinicotinonitrile]
0.04 to 20		Cc1c(COc2cc(OCc3cncc(C#N)c3)c(CN[C@@](C)(CO)C(=O)O)cc2Cl)cccc1-c1cccc(COc2cc(OCc3cncc(C#N)c3)c(CN[C@@](C)(CO)C(=O)O)cc2Cl)c1C [Example 2123, (2S,2′S)-2,2′-((((((2,2′-dimethyl-[1,1′-biphenyl]-3,3′-diyl)bis(methylene))bis(oxy))bis(5-chloro-2-((5-cyanopyridin-3-yl)methoxy)-4,1-phenylene))bis(methylene))bis(azanediyl))bis(3-hydroxy-2-methylpropanoic acid)]
0.04 to 20		C[C@@](CO)(NCc1cc(Cl)c(OCc2cccc(-c3cccc(COc4cc(OCc5cncc(C#N)c5)c(CN[C@@](C)(CO)C(=O)O)cc4Cl)c3Cl)c2Cl)cc1O)C(=O)O [Example 41170]
1000 to 10000		Cc1c(OCCCNCc2cccnc2)cccc1-c1cccc(OCCCN2CC[C@@H](O)C2)c1C [Example 2050, (R)-1-(3-((2,2′-dimethyl-3′-(3-((pyridin-3-ylmethyl)amino)propoxy)-[1,1′-biphenyl]-3-yl)oxy)propyl)pyrrolidin-3-ol]
0.04 to 20		COc1cc(OCc2cccc(-c3cccc(COc4cc(OCc5cncc(C#N)c5)c(CN(C)CCC(=O)O)cc4Cl)c3C)c2C)c(Cl)cc1CN(C)CCC(=O)O [Example 5031, 3-((4-((3′-((4-(((2-carboxyethyl)(methyl)amino)methyl)-2-chloro-5-((5-cyanopyridin-3-yl)methoxy)phenoxy)methyl)-2,2′-dimethyl-[1,1′-biphenyl]-3-yl)methoxy)-5-chloro-2-methoxybenzyl)(methyl)amino)propanoic acid]
